Structures are written as SMILES.

This is an account of results in US20250387409A1, “3-BETA-HYDROXY-3-ALPHA-ETHYL STEROIDS FOR MODULATION OF THE ALPHA-3 SUBTYPE OF THE GABAA RECEPTOR” (priority 2021, published 2025).

Assay [1] concerns the target T1, human α3-β3-γ2L GABAA-receptor subtype (Homo sapiens, UniProt P28472+P34903).
T1 construct: expressed in transfected cells
Kind of assay: Patch clamp (Dynaflow) GABA-mediated current response, HEK-293 cells, α3β3γ2L. In kind it is cell-based. Particulars: 1 μM steroid; essentially as in Example 2. From the text:
(§1) In these tests the protocol was optimized to be like the physiological conditions in the synaptic cleft.
(§2) Preparation of cell lines: HEK-293 cells permanently transfected with the human α1-β2-γ2L, α2-β3-γ2S, α3-ββ3-γ2L, α4-β3-δ or α5-β3-γ2L GABAA-receptor subtypes were used. The cell lines permanently expressing a functional human GABAA-receptor was made in following steps. The human GABAA-receptor subunits e.g. α1 (308-1727 NM_000806), β2 (214-1679 NM_000813), γ2L (290-1785 NM_198904), α2, β3, γ2S, α3, α4, δ and α5 including introduced Kozac sequences just before the start codons were subcloned into mammalian expression vectors containing Geneticin, Hygromycin B, and Zeocin resistance, respectively. A HEK-293 cell line stably expressing the three GABAA-receptor subunits was produced by transfection of the subunits, one at a time. The transfection was followed by selection with the appropriate antibiotics, cell separation with the use of subunit specific antibodies and production of single cell colonies. Produced cell lines were analysed with immunocytochemistry for the three GABAA-receptor subunits, followed by selection of a suitable cell line showing, for the GABAA-receptor normal and good reactivity in a patch-clamp analysis (see below) towards GABA and the GAMS THDOC.
(§3) Cell culture: HEK-293 cells, permanently transfected with human α1-β2-γ2L, α2-β3-γ2S, α3-β3-γ2L, α4-β3-δ and α5-β3-γ2L GABAA-receptor subtypes, were seeded at a density of 3×10^4/25 cm^2 in cell binding culture flask. The transfected cells were used for patch-clamp experiments 3 days after seeding. When using the cells for patch-clamp experiments the cells were washed twice with oxygen-bubbled EC-solution (see below). About 5 mL EC was then added and the cells were kept in the incubator for about 15 minutes. After 15 minutes the cells came loose from the bottom of the flask and were separated by carefully sucking couple of times with a Pasteur pipette.
(§4) Dynaflow™ system: Dynaflow™ system with resolve chips was used for all patch-clamp experiments. The resolve chips is made of non-sticky materials. The channel width is 150 μm and the height 50 μm. The well volume is 280 μL. Run time at the flow rate of 26 μL/min is […]. The pump settings were as follow: Omnifix 2 ml syringe with inner diameter of 9.65 mm was used. The syringe pump flow rate of chip was 26 μL/min.
(§5) Steroids and GABA: GABA was dissolved in EC-solution by ultrasound for about 40 minutes to the concentration of 10 mM in room temperature. All steroids were dissolved to the concentration of 6 mM in dimethyl sulfoxide (DMSO). The DMSO concentration was 0.1% in all end-solutions, including the wash solution (EC) and the solution with GABA alone. End-solutions are the solutions added into the wells of the chip.
(§6) Electrophysiology: Patch electrodes were pulled from 1.5 mm O.D., 0.86 mm I.D. borosilicate capillary glass without filament. […] The intracellular solution (IC) comprised of (in mM): 140 Cs-gluconate, 3.0 NaCl, 1.2 MgCl2, 1.0 EGTA, 10 HEPES. pH was adjusted to 7.2 with CsOH. The extracellular (EC) solution used during recordings contained (in mM): 137 NaCl, 5.0 KCl, 1.0 CaCl2), 1.2 MgCl2, 10 HEPES, 10 glucose. pH was adjusted with NaOH to 7.4. After compensating for the liquid junction potential, a steady holding potential of −17 mV was used in all experiments. In physiological conditions the HEK-293 has a resting potential at −40 mV and a low concentration of chloride ions inside the cell. By using the holding potential of-17 mV and the intracellular solution with low chloride ion concentration the chloride ions flux into the cell when the receptors are activated. All experiments were performed at room temperature (21 to 23° C.). The following standard protocol was used for all experiments.
(§7) GABA applications: By using the Dynaflow equipment it is possible to study transfected HEK-293 during almost physiological conditions.
Background: In patch-clamp work, channel activity is measured electrically.

Assay [2] concerns Male Wistar rats. The assay is described as follows: Weight increase in growing male rats, experiment 1 (IV injections, 5 days). The format is in vivo, rat. The settings on record: 2 mg/kg IV. As for the experimental part: (§8) Animals: Male Wistar rats were kept in group cages, with three animals per cage, from delivery and throughout the period of experiments. The individual animals were marked so that they could be identified throughout the experiment duration. The animals weight an average of 152 g upon arrival. A reversed light dark (12:12h) cycle was used with the dark period onset at 0600 hrs. Altogether fifty-six (56) rats were used in this study (experiment 1+2). The animals were delivered from the breeder Taconic (Denmark). The study protocol was approved by the Regional Ethics Committee of Umeå University, Sweden.
(§9) Feeding: Standard chow and water were available ad libitum. A reversed 12-h dark-light cycle with lights off at 10.00 am and lights on at 22.00 pm was used. For identification, the rats were marked with a permanent marker on the tail. To avoid the endogenous allopregnanolone fluctuations that are present in the oestrous cycle of female rats, male rats were chosen (Frye et al. 2000). The animals were allowed to acclimatize for at least 3 weeks before start of the experimental sessions. During this period, the rats were repeatedly handled and allowed habituation to the new environment and to all new procedures, to minimize stress during the experiments.
(§10) After 14 days of triad housing, handling and injection training of the animals, the animals were treated for 5 days with IV injections in experiment 1 and 10 days with a daily subcutaneous injection of the assigned treatment in experiment 2 (Tables 4 and 5). The injections were given at 08.00 every morning. The animals were weighed the day before onset of the treatment and at the last day of injection i.e. on the 5th or 10th day of treatment. Weight was taken at the time of the last injection. […] The results are shown in FIG. 3 (experiment 1) and FIG. 4 (experiment 2), respectively.

In a further assay the test system is GABAA receptor. Particulars: table 3 in WO 09/142594; cited from earlier work.
Assay [3] addresses T2, GABAA receptor subtype α1β2γ2 (Homo sapiens, UniProt P14867+P47870).
T2 construct: expressed in transfected cells
Kind of assay: Patch clamp THDOC enhancement of GABA response, α1β2γ2. The settings on record: 1 μM steroid + THDOC. The format is cell-based.
From the text: as §1
as §2, with “THDOC. […]” for “THDOC.”

Assay [4] has as its target T3, human α1-β2-γ2L GABAA-receptor subtype (Homo sapiens, UniProt P14867+P47870).
T3 construct: expressed in transfected cells
Kind of assay: Patch clamp (Dynaflow) GABA-mediated current response, HEK-293 cells, α1β2γ2L. In kind it is cell-based. The settings on record: 1 μM steroid; essentially as in Example 2.
From the text: as §1, §2, §3, §4, §5
as §6, with “By using the holding potential of-17 mV and the intracellular solution with low chloride ion concentration the chloride ions flux into the cell when the receptors are activated. All experiments were performed at room temperature (21 to 23° C.). The following standard protocol was used for all experiments.” left out

The target of assay [5] is T4, human GABAA-receptor subtype α3β3γ2L (Homo sapiens, UniProt P28472+P34903).
T4 construct: expressed in transfected cells
Kind of assay: Patch clamp (Dynaflow) THDOC enhancement of GABA response, HEK-293 cells, α3β3γ2L. The format is cell-based. The settings on record: 1 μM steroid + THDOC.
From the text: as §1, §2, §3, §4, §5, §6, §7

The subject of assay [6] is Male Wistar rats. Kind of assay: Weight increase in growing male rats, experiment 2 (daily subcutaneous injection, 10 days). In kind it is in vivo, rat. The settings on record: for reduced weight versus the E+P control rats / reduction in weight compared to vehicle: 10 days. As for the experimental part: as §8, §9, §10
[7] abbreviates: 1 mg/kg s.c. + 5 mg/kg progesterone + 10 μg/kg 17β-estradiol.
The mark [8] stands for this setting: 5 mg/kg s.c. + 5 mg/kg progesterone + 10 μg/kg 17β-estradiol.

T2 sequence (P14867 28-456): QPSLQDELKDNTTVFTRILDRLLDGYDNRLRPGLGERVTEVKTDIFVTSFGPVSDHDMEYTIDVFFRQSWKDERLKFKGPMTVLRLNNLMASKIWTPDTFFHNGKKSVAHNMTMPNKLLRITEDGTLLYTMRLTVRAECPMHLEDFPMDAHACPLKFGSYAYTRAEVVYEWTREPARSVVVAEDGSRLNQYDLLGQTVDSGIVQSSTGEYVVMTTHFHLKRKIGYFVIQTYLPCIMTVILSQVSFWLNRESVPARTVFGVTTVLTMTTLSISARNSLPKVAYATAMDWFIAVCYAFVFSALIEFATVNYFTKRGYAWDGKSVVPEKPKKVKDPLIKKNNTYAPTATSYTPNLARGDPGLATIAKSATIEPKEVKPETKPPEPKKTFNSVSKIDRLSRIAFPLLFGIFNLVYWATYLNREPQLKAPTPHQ
T2 sequence (P47870 26-474 isoform P47870-1 limits assumed): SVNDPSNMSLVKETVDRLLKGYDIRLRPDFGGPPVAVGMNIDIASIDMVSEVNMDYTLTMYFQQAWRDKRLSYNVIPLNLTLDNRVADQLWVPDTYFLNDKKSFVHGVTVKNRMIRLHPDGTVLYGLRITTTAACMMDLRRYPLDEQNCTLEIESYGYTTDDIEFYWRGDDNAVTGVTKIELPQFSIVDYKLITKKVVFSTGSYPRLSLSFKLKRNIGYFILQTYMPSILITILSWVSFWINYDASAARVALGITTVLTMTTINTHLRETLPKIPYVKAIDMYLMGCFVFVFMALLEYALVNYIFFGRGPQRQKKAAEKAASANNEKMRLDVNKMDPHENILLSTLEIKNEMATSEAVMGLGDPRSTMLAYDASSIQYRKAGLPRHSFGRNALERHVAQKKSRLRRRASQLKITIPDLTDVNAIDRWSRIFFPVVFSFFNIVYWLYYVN
T2 sequence (P18507 40-475 partner): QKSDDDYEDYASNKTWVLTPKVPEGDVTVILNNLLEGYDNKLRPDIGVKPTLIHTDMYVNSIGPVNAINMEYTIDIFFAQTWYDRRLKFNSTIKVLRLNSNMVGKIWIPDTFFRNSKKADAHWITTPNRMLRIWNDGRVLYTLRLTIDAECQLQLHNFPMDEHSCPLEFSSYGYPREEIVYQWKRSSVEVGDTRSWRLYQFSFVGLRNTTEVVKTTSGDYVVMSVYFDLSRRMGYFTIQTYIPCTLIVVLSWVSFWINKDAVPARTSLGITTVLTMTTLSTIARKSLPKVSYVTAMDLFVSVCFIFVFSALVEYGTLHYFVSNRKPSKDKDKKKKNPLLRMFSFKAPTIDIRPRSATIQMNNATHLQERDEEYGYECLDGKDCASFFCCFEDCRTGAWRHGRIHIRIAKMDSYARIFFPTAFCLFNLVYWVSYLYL
T3 sequence (P14867 28-456): as the sequence (P14867 28-456) above
T3 sequence (P47870 26-474 isoform P47870-1 limits assumed): as the sequence (P47870 26-474 isoform P47870-1 limits assumed) above
T3 sequence (P18507 40-475 partner): as the sequence (P18507 40-475 partner) above
T4 sequence (P34903 29-492): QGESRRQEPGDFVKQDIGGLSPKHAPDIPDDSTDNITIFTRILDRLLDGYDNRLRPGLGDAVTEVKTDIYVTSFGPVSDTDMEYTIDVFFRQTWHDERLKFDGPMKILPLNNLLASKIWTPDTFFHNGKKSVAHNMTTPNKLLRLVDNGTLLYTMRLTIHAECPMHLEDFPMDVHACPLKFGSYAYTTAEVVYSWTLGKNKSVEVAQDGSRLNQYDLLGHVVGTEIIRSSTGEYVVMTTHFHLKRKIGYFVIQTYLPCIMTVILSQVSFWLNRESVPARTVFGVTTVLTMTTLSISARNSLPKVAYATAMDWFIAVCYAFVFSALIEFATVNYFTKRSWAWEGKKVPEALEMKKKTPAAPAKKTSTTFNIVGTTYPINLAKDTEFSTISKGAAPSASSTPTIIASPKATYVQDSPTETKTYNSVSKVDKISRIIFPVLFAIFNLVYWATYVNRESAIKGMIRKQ
T4 sequence (P28472 26-473): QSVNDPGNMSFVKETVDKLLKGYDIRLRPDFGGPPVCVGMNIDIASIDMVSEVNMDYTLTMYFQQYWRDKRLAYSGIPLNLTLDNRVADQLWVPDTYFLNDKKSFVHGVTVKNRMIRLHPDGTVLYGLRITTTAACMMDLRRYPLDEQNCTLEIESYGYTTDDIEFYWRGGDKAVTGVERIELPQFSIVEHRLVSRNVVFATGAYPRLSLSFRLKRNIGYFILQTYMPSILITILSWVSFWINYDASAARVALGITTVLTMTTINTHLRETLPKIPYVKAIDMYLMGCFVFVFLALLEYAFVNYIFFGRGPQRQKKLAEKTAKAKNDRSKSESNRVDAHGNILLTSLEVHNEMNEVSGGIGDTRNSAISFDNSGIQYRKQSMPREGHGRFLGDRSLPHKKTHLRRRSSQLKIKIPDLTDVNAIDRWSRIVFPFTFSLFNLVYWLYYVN
T4 sequence (P18507 40-475 partner): as the sequence (P18507 40-475 partner) above
T1 sequence (P34903 29-492): as the sequence (P34903 29-492) above
T1 sequence (P28472 26-473): as the sequence (P28472 26-473) above
T1 sequence (P18507 40-475 partner): as the sequence (P18507 40-475 partner) above

Turning to `C#C[C@]1(O)CC[C@@]2(C)[C@@H](CC[C@@H]3[C@@H]2CC[C@]2(C)C(=O)CC[C@@H]32)C1` [3α-ethynyl-3β-hydroxy-5α-androstan-17-one], the “Effect against GABAs agonistic effect, a3β3γ2” value in assay [1] is recorded as −46 ± 1.3%,. In addition, in the assay with Male Wistar rats [2], the “increase in weight versus vehicle treated groups” value is recorded as “significantly lower”. The “Mean weight increase since arrival. g” value in the assay on Male Wistar rats [2] (in 10% β-cyclodextrine 1 ml/kg, first block of Table 6) was 97.43 g; in the assay on Male Wistar rats [2] (second block of Table 6 (increase from start of treatment)), 11.86 g. Moreover, the “effect as a GAMSA or GAMS” value in the assay with GABAA receptor is given as “no effect as a GAMSA or GAMS”. Further, the “Antagonism of 100 nM THDOC-enhancement, α1β2γ2” value in assay [3] is recorded as “No effect”. Besides, in assay [4], the “Effect against GABAs agonistic effect, α1β2γ2” value is reported as −1.9 ± 2.4%. Also, in assay [5], the “Antagonism of 100 nM THDOC-enhancement, a3β3γ2” value is −166 + 19.9%,. The “reduced weight versus the E+P control rats” value in the assay on Male Wistar rats [6] (setting [7]) is -23.9 ± 4.4 g; with Male Wistar rats [6] (setting [8]), -20.4 ± 5.2 g. Besides, the “reduction in weight compared to vehicle” value is -33 ± 4.4 g in the assay on Male Wistar rats [6] (setting [7]) and -29.6 ± 5.2 g in the assay on Male Wistar rats [6] (setting [8]). In the assay on Male Wistar rats [6] (10 days s.c. treatment), the “weight difference after 10 days of treatment compared to vehicle” value is on record as “over 20%”.
